Assay results reported in US20230320956A1, “DIARYLALKANE COMPOUNDS AND COMPOSITIONS FOR USE WITH SKIN AGING AND METHODS OF PRODUCTION THEREOF” (Unigen, Inc., priority 2022, published 2023).

What was measured:
[1] = system: skin brightness/luminance, Asian subjects; assay: Self-assessment of skin brightness/luminance, Asian subjects; format: in vivo, human; details: Week 8
Experimental: Included subjects were: • 1. Female subjects between the ages of 35-66 (inclusive) in general good health • 2. Asian subjects who had skin brightness/luminance score of “5” (moderately dull/sallow appearance) or greater on the face (for qualification only) as assessed by a trained technician and whose brightness/luminance were evaluated according to the following scale: 0—No dullness/sallowness visible, 1-3—Slightly dull/sallow appearance, 4-6—Moderately dull/sallow appearance, 7-9—Severely dull/sallow appearance. • 3. […] Individuals who could read, understand, and sign the Informed Consent form. • 5. […] At all visits, a trained technician evaluated the face of each subject for irritation. […] Results: Skin brightness/luminance (Asian subjects): In order to determine any changes in skin brightness/luminance, skin brightness (luminosity) was analyzed by Visia CR®. Facial luminance was a single number calculated based on the uniformity of the lightening of the image. […] There were no significant changes to brightness/luminance as assessed by the Visia CR® analysis at any of the clinic visits, although the Mean Score for skin brightness/luminance trended toward an increase at 4 and 8 weeks after starting dimethoxytolyl propylresorcinol use compared to Baseline (Table 24), indicating an improvement in skin brightness/luminance.

[2] = system: skin blotchiness/age spots, Caucasian subjects; assay: Self-assessment of skin blotchiness/age spots, Caucasian subjects; format: in vivo, human; details: Week 8
Experimental: Skin Blotchiness/Age Spots (Caucasian subjects): In order to determine any changes in skin blotchiness/age spots, chroma was analyzed by Visia CR®. The degree to which a color is free from being mixed with other colors is a good indication of its chromacity. An increase in the chroma score represented an improvement in skin blotchiness/age spots. A decrease represented a worsening. At each visit, Caucasian subjects rated their skin blotchiness/age spots according to the following scale: 0—No skin blotchiness or age spots visible, 1-3—Slight areas of skin blotchiness or age spots visible, 4-6—Moderate areas of skin blotchiness or age spots visible, 7-9—Severe areas of skin blotchiness or age spots visible. Additionally, at the final visit, subjects completed a questionnaire. There were no significant changes to skin blotchiness/age spots as assessed by the Visia CR® analysis at any of the clinic visits, although the Mean Score for skin blotchiness/age spots trended toward an increase at all 2, 4, and 8 weeks after starting dimethoxytolyl propylresorcinol use compared to Baseline, indicating an improvement in skin blotchiness/age spots (Table 27).

COc1ccc(CCCc2ccc(O)cc2O)c(OC)c1C [dimethoxytolyl propylresorcinol, 1-(3-methyl-2,4-dimethoxyphenyl)-3-(2′,4′-dihydroxyphenyl)-propane]
Self-Assessment Skin Brightness/Luminance % Improvement from Baseline [1]: 13% | Self-Assessment Skin Blotchiness/Age Spots % Improvement from Baseline [2]: 37%
